The values below come from ChEMBL document CHEMBL2157915, “Identification of a Natural Product Antagonist against the Botulinum Neurotoxin Light Chain Protease” (ACS Med Chem Lett, 2010).

The source made the active and inactive calls. No cut-off for these calls is given here. A value given as a limit tells only on which side of the number the result lay.

Assay [1] deals with Botulinum neurotoxin type A (Clostridium botulinum) (UniProt P0DPI0). As to conditions: 90 uM.
In assay [2] the target is T1, Botulinum neurotoxin type A (Clostridium botulinum, UniProt P0DPI0).
T1 sequence (P0DPI0 2-448 limits assumed): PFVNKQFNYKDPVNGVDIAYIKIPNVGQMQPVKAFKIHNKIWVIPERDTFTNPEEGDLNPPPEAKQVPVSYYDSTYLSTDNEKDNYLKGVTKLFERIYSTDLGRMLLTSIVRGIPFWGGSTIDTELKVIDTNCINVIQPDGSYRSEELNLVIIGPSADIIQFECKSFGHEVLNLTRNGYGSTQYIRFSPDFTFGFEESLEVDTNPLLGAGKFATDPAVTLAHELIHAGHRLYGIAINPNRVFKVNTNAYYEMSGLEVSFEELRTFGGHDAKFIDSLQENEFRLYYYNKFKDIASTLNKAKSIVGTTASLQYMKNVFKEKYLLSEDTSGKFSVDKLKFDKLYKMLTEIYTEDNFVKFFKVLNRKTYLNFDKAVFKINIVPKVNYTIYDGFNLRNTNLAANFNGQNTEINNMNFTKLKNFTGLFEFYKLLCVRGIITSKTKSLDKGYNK
Assay [3] deals with Botulinum neurotoxin type A (Clostridium botulinum) (UniProt P0DPI0). The conditions noted are these: 5 uM.
Assay [4] deals with T1, Botulinum neurotoxin type A. The source holds these as a separate data set.
The target in assay [5] is Botulinum neurotoxin type A (Clostridium botulinum) (UniProt P0DPI0). As to conditions: 150 uM.
Assay [6] addresses T1, Botulinum neurotoxin type A. This is another data set of the same source.
The target of assay [7] is Botulinum neurotoxin type A (Clostridium botulinum) (UniProt P0DPI0).
The target of assay [8] is T1, Botulinum neurotoxin type A. This is another data set of the same source.
In assay [9] the target is Botulinum neurotoxin type A (Clostridium botulinum) (UniProt P0DPI0). The conditions noted are these: 500 uM.

Sequence of Botulinum neurotoxin type A (Clostridium botulinum) (P0DPI0 2-448 limits assumed): as above

`COC(=O)c1ccc(O)c2nc3c(C=O)c(O)cc(O)c3nc12` [LOMOFUNGIN]: the inhibition is 10% in assay [1] and > 70% in [5]. In assay [2], the IC50 was ≥ 50 µM. The inhibition entry in [3] was “Active”. This compound showed a Ki in assay [4] of 6.7 µM. In assay [6], this compound returned an EC50 of 131 µM. Further, the Ratio IC50 in assay [7] came to 20.

In the case of `Oc1cccc2cccnc12` [OXYQUINOLINE], in assay [8], the concentration for half-maximal inhibition (IC50) result is listed as “Not Active”. Moreover, the inhibition entry in assay [9] was “inactive”.
